{"source": "patent US10716806B2", "about": "“Solution of carbon monoxide for the treatment of disease, including sickle cell disease” (Children's Hospital Los Angeles, priority 2011, dated 2020)", "key": {"[1]": {"assay": "CO concentration achievable in aqueous composition (water) at given temperature and pressure", "format": "physicochemical", "text": "There are a number of significant limitations to using the delivery of CO dissolved in liquid and used through the GI tract or IV for therapeutic or prophylactic purposes. These limitations have been overcome in the present invention. The primary barrier to date has been delivering sufficient quantities of CO. The solubility of CO in aqueous solutions is low at room temperature and normal atmospheric pressure (ATM). Thus, using approaches previously proposed in the art, which rely on dissolving CO into an aqueous composition at room temperature and at atmospheric pressure, the volume of liquid necessary to deliver a therapeutic dose of CO is logistically prohibitive. However, using the present invention, therapeutically useful levels of CO can be achieved. Table 1 provides a summary of volumes necessary to achieve a therapeutic dose providing an average increase of […] CO-Hb, which provides an average CO-Hb level in the blood of about 7% on average without rising above 15% at any given time. The values are presented for SCD patients. Table 2 provides a similar summary of volumes necessary to treat patients having normal levels of Hb and normal lung function.\nFirst, in the present invention, in particular as it relates to embodiments wherein aqueous compositions are involved, CO is dissolved in an aqueous liquid under higher than ambient pressure. The use of pressure to dissolve the CO increases the achievable concentration of CO in solution. […] Although raising the pressure above 10 ATM might not be commercially practicable, it is technologically feasible at this time. […]"}, "[2]": {"conditions": "cited from earlier work"}, "[3]": {"conditions": "cited from earlier work", "remark": "listed apart in the source"}}, "data": [{"smiles": "[C-]#[O+]", "note": "[CO, carbon monoxide]", "values": [{"measurement": "CO Concentration Achievable in Aqueous Composition", "setting": "[1]; 2° C., 1 ATM", "value": 40, "unit": "mg/L water"}, {"measurement": "CO Concentration in Aqueous Solution", "setting": "[1]; 2° C., 1 ATM", "value": 40, "unit": "mg/L water"}, {"measurement": "CO Concentration Achievable in Aqueous Composition", "setting": "[1]; 2° C., 2 ATM", "value": 80, "unit": "mg/L water"}, {"measurement": "CO Concentration in Aqueous Solution", "setting": "[1]; 2° C., 2 ATM", "value": 80, "unit": "mg/L water"}, {"measurement": "CO Concentration Achievable in Aqueous Composition", "setting": "[1]; 2° C., 3 ATM", "value": 120, "unit": "mg/L water"}, {"measurement": "CO Concentration in Aqueous Solution", "setting": "[1]; 2° C., 3 ATM", "value": 120, "unit": "mg/L water"}, {"measurement": "CO Concentration Achievable in Aqueous Composition", "setting": "[1]; 2° C., 5 ATM", "value": 200, "unit": "mg/L water"}, {"measurement": "CO Concentration in Aqueous Solution", "setting": "[1]; 2° C., 5 ATM", "value": 200, "unit": "mg/L water"}, {"measurement": "CO Concentration Achievable in Aqueous Composition", "setting": "[1]; 2° C., 10 ATM", "value": 400, "unit": "mg/L water"}, {"measurement": "CO Concentration in Aqueous Solution", "setting": "[1]; 2° C., 10 ATM", "value": 400, "unit": "mg/L water"}, {"measurement": "CO Concentration Achievable in Aqueous Composition", "setting": "[1]; 21° C., 1 ATM", "value": 25, "unit": "mg/L water"}, {"measurement": "half-life of the alpha-phase of CO in the human bloodstream", "setting": "[2]", "value": "4 to 6", "unit": "h"}, {"measurement": "CO-Hb level at which toxicity and side effects are routinely seen", "setting": "[3]; generally recognized", "value": "over 20%"}, {"measurement": "CO-Hb level showing effectiveness at reducing SCC without significant deleterious side effects or toxicity", "setting": "[3]; generally recognized", "value": "up to 15 % CO-Hb"}, {"measurement": "Hb saturation likely resulting in CO-induced death unless treatment is provided", "setting": "[3]; reported (Stewart 1975)", "value": "over 67%"}, {"measurement": "Hb saturation resulting in loss of consciousness, among other serious morbidities", "setting": "[3]; reported, can result in death if maintained long-term", "value": "over 30%"}]}]}
